Test results: paper PMC8253220, “Molecular design, synthesis and in vitro biological evaluation of thienopyrimidine–hydroxamic acids as chimeric kinase HDAC inhibitors: a challenging approach to combat cancer” (Journal of Enzyme Inhibition and Medicinal Chemistry, 2021)
“And” between values parts separate entries of the source, which are not always exact repeats. Equal values may be shown once.

Columns and labels:
Assay in all cases: NCI one-dose screen
Assay type in all cases: cell-based, human
[1] = test system: M14; settings: Melanoma M14, 10 µM single dose
How it was run: (§1)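 At 10 μM, a single concentration, compounds were evaluated for antiproliferative effect in the NCI 60-line screen, with growth expressed relative to untreated control cells.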

[2] = test system: ACHN; settings: Renal ACHN, 10 µM single dose
How it was run: as §1

[3] = test system: OVCAR-4; settings: Ovarian OVCAR-4, 10 µM single dose
How it was run: as §1

[4] = test system: OVCAR-3; settings: Ovarian OVCAR-3, 10 µM single dose
How it was run: as §1

[5] = test system: KM12; settings: for Growth Percent: Colon KM12, 10 µM single dose
How it was run: (§2)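 One concentration (10 μM) applied to each line of the full NCI-60 panel; percent growth compared against untreated cells.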

[6] = test system: EKVX; settings: NSCLC EKVX, 10 µM single dose
How it was run: (§3)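 Each cell line received compound at 10 μM as part of the NCI one-dose protocol. Values reflect growth inhibition percent calculated from growth relative to untreated controls.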

[7] = test system: SK-MEL-2; settings: Melanoma SK-MEL-2, 10 µM single dose
How it was run: as §2

[8] = test system: OVCAR-5; settings: Ovarian OVCAR-5, 10 µM single dose
How it was run: as §1

[9] = test system: NCI/ADR-RES; settings: Ovarian NCI/ADR-RES, 10 µM single dose
How it was run: as §1

[10] = test system: SNB-19; settings: CNS SNB-19, 10 µM single dose
How it was run: as §2

[11] = test system: IGROV1; settings: Ovarian IGROV1, 10 µM single dose
How it was run: as §1

[12] = test system: HCT-15; settings: Colon HCT-15, 10 µM single dose
How it was run: as §1

[13] = test system: U251; settings: for Growth Percent: CNS U251, 10 µM single dose
How it was run: as §3

[14] = test system: MCF7; settings: for Growth Percent: Breast MCF7, 10 µM single dose
How it was run: as §2

[15] = test system: SF-268; settings: for Growth Percent: CNS SF-268, 10 µM single dose
How it was run: as §2

[16] = test system: CAKI-1; settings: Renal CAKI-1, 10 µM single dose
How it was run: as §1

[17] = test system: MDA-MB-231/ATCC; settings: Breast MDA-MB-231/ATCC, 10 µM single dose
How it was run: as §1

[18] = test system: COLO 205; settings: Colon COLO 205, 10 µM single dose
How it was run: as §1

[19] = test system: LOX IMVI; settings: Melanoma LOX IMVI, 10 µM single dose
How it was run: as §1

[20] = test system: MDA-MB-468; settings: Breast MDA-MB-468, 10 µM single dose
How it was run: as §2

[21] = test system: SK-MEL-5; settings: Melanoma SK-MEL-5, 10 µM single dose
How it was run: as §1

[22] = test system: 786-0; settings: Renal 786-0, 10 µM single dose
How it was run: as §1

[23] = test system: DU-145; settings: Prostate DU-145, 10 µM single dose
How it was run: as §1

[24] = test system: SK-MEL-28; settings: Melanoma SK-MEL-28, 10 µM single dose
How it was run: as §1

[25] = test system: NCI-H460; settings: NSCLC NCI-H460, 10 µM single dose
How it was run: as §1

[26] = test system: RXF 393; settings: Renal RXF 393, 10 µM single dose
How it was run: as §1

[27] = test system: SF-539; settings: for Growth Percent: CNS SF-539, 10 µM single dose
How it was run: as §2

[28] = test system: SNB-75; settings: for Growth Percent: CNS SNB-75, 10 µM single dose
How it was run: as §3

[29] = test system: RPMI-8226; settings: Leukemia RPMI-8226, 10 µM single dose
How it was run: as §1

[30] = test system: NCI-H522; settings: for Growth Percent: NSCLC NCI-H522, 10 µM single dose
How it was run: as §3

[31] = test system: K-562; settings: Leukemia K-562, 10 µM single dose
How it was run: as §1

[32] = test system: HL-60(TB); settings: Leukemia HL-60(TB), 10 µM single dose
How it was run: as §1

[33] = test system: HCT-116; settings: Colon HCT-116, 10 µM single dose
How it was run: as §1

[34] = test system: NCI-H23; settings: for Growth Percent: NSCLC NCI-H23, 10 µM single dose
How it was run: as §2

[35] = test system: CCRF-CEM; settings: Leukemia CCRF-CEM, 10 µM single dose
How it was run: as §1

[36] = test system: BT-549; settings: Breast BT-549, 10 µM single dose
How it was run: as §1

[37] = test system: HCC-2998; settings: Colon HCC-2998, 10 µM single dose
How it was run: as §1

With `COc1cccc(NC(=O)Nc2ccc(Nc3ncnc4sc(C(=O)NO)c(C)c34)cc2)c1` [Compound 7b, 1–(4-(6-(hydroxycarbamoyl)-5-methylthieno[2,3-d]pyrimidin-4-ylamino)phenyl)-3–(3-methoxyphenyl)urea] the “Growth Percent” value [1] was 101.0% and 101.01%, the “Growth Percent” value [2] was 103.7% and 103.71% and the “Growth Percent” value [3] was 101.8% and 101.82%. For the same molecule, the “Growth Percent” value [4] was 106.5% and 106.55%, the “Growth Percent” value [5] was 102.7% and 102.79% and the “Growth Percent” value [6] was 92.8% and 92.81%. The “Growth Percent” value [7] was 100.6% and 100.68%, the “Growth Percent” value [8] was 102.8% and 102.86% and the “Growth Percent” value [9] was 97.6% and 97.67%. For the same molecule, the “Growth Percent” value [10] was 100.1% and 100.14%, the “Growth Percent” value [11] was 106.5% and 106.51% and the “Growth Percent” value [12] was 99.0% and 99.07%. The “Growth Percent” value [13] was 101.4% and 101.41%, the “Growth Percent” value [14] was 95.2% and 95.27% and the “Growth Percent” value [15] was 93.3% and 93.33%. For the same molecule, the “Growth Percent” value [16] was 99.4% and 99.45%, the “Growth Percent” value [17] was 99.5% and 99.59% and the “Growth Percent” value [18] was 114.4% and 114.44%. For the same molecule, the “Growth Percent” value [19] was 94.1% and 94.14%, the “Growth Percent” value [20] was 98.8% and 98.87% and the “Growth Percent” value [21] was 99.5%. The “Growth Percent” value [22] was 100.6% and 100.62%, the “Growth Percent” value [23] was 103.1% and 103.17% and the “Growth Percent” value [24] was 111.1% and 111.16%. The “Growth Percent” value [25] was 100.7% and 100.73%, the “Growth Percent” value [26] was 104.4% and the “Growth Percent” value [27] was 97.2% and 97.26%. For the same molecule, the “Growth Percent” value [28] was 92.7% and 92.76%, the “Growth Percent” value [29] was 110.6% and 110.62% and the “Growth Percent” value [30] was 90.2% and 90.28%. The “Growth Percent” value [31] was 108.5% and 108.57%, the “Growth Percent” value [32] was 103.1% and 103.15% and the “Growth Percent” value [33] was 102.7% and 102.72%. For the same molecule, the “Growth Percent” value [34] was 98.8% and 98.89%, the “Growth Percent” value [35] was 101.2% and 101.22% and the “Growth Percent” value [36] was 99.5% and 99.56%. The “Growth Percent” value [37] was 103.6% and 103.61%.
For `Cc1c(C(=O)NO)sc2ncnc(Nc3ccc(NC(=O)Nc4cccc(C(F)(F)F)c4)cc3)c12` [Compound 7c, 1–(4-(6-(hydroxycarbamoyl)-5-methylthieno[2,3-d]pyrimidin-4-ylamino)phenyl)-3–(3-(trifluoromethyl)phenyl)urea], the “Growth Percent” value [1] was 102.4% and 102.43%, the “Growth Percent” value [2] was 94.84% and the “Growth Percent” value [3] was 103.4% and 103.45%. For the same molecule, the “Growth Percent” value [4] was 104.2% and 104.27%, the “Growth Percent” value [5] was 66.3% and 66.34% and the inhibition at 10 µM ([5]; Homo sapiens, colon KM12, 10 μM) was 33.7%. The “Growth Percent” value [6] was 95.7% and 95.77%, the “Growth Percent” value [7] was 108.5% and 108.54% and the “Growth Percent” value [8] was 114.3% and 114.33%. For the same molecule, the “Growth Percent” value [9] was 97.6% and 97.66%, the “Growth Percent” value [10] was 90.8% and 90.81% and the “Growth Percent” value [11] was 97.6% and 97.68%. The “Growth Percent” value [12] was 97.7% and 97.77%, the “Growth Percent” value [13] was 73.1% and 73.13% and the inhibition at 10 µM ([13]; Homo sapiens, U-251, CNS U251, 10 μM) was 26.9%. The “Growth Percent” value [14] was 88.4% and 88.42%, the inhibition at 10 µM ([14]; Homo sapiens, breast MCF7, 10 μM) was 11.6% and the “Growth Percent” value [15] was 89.2%. For the same molecule, the inhibition at 10 µM ([15]; Homo sapiens, CNS SF-268, 10 μM) was 10.8%, the “Growth Percent” value [16] was 90.57% and the “Growth Percent” value [17] was 95.2% and 95.26%. For the same molecule, the “Growth Percent” value [18] was 103.3% and 103.35%, the “Growth Percent” value [19] was 90.9% and 90.99% and the “Growth Percent” value [20] was 109.16%. For the same molecule, the “Growth Percent” value [21] was 99.6% and 99.67%, the “Growth Percent” value [22] was 108.4% and 108.43% and the “Growth Percent” value [23] was 104.5% and 104.51%. The “Growth Percent” value [24] was 108.2% and 108.23%, the “Growth Percent” value [25] was 101.7% and 101.73% and the “Growth Percent” value [26] was 106.61%. For the same molecule, the “Growth Percent” value [27] was 61.4% and 61.49%, the inhibition at 10 µM ([27]; Homo sapiens, CNS SF-539, 10 μM) was 38.6% and the “Growth Percent” value [28] was 54.0% and 54.04%. The inhibition at 10 µM ([28]; Homo sapiens, CNS SNB-75, 10 μM) was 46%, the “Growth Percent” value [29] was 93.27% and the inhibition at 10 µM ([30]; Homo sapiens, NSCLC NCI-H522, 10 μM) was 11.7%. For the same molecule, the “Growth Percent” value [30] was 88.3% and 88.38%, the “Growth Percent” value [31] was 91.7% and 91.72% and the “Growth Percent” value [32] was 102.0% and 102.08%. For the same molecule, the “Growth Percent” value [33] was 97.9% and 97.94%, the inhibition at 10 µM ([34]; Homo sapiens, NSCLC NCI-H23, 10 μM) was 11.1% and the “Growth Percent” value [34] was 88.9% and 88.92%. The “Growth Percent” value [35] was 101.6%, the “Growth Percent” value [36] was 115.1% and 115.17% and the “Growth Percent” value [37] was 112.6% and 112.66%.
`Cc1c(C(=O)NCCC(=O)NO)sc2ncnc(Nc3ccc(NC(=O)Nc4ccccc4)cc3)c12` [Compound 11a, 1–(4-(6-((3-(hydroxyamino)-3-oxopropyl)carbamoyl)-5-methylthieno[2,3-d]pyrimidin-4-ylamino)phenyl)-3-phenylurea] was tested, and the “Growth Percent” value [1] was 99.1% and 99.16%, the “Growth Percent” value [2] was 101.6% and 101.68% and the “Growth Percent” value [3] was 101.4% and 101.41%. For the same molecule, the “Growth Percent” value [4] was 102.6% and 102.61%, the “Growth Percent” value [5] was 103.2% and 103.23% and the “Growth Percent” value [6] was 94.6% and 94.62%. The “Growth Percent” value [7] was 107.0% and 107.07%, the “Growth Percent” value [8] was 106.2% and 106.26% and the “Growth Percent” value [9] was 99.0% and 99.07%. For the same molecule, the “Growth Percent” value [10] was 97.5% and 97.59%, the “Growth Percent” value [11] was 103.0% and 103.03% and the “Growth Percent” value [12] was 95.7% and 95.77%. The “Growth Percent” value [13] was 96.9% and 96.93%, the “Growth Percent” value [14] was 92.3% and the “Growth Percent” value [15] was 96.8% and 96.85%. The “Growth Percent” value [16] was 94.5% and 94.51%, the “Growth Percent” value [17] was 97.6% and 97.67% and the “Growth Percent” value [18] was 113.5% and 113.57%. For the same molecule, the “Growth Percent” value [19] was 95.3% and 95.38%, the “Growth Percent” value [20] was 101.3% and 101.31% and the “Growth Percent” value [21] was 99.1% and 99.18%. For the same molecule, the “Growth Percent” value [22] was 98.2% and 98.21%, the “Growth Percent” value [23] was 110.81% and the “Growth Percent” value [24] was 105.1% and 105.11%. The “Growth Percent” value [25] was 101.8% and 101.81%, the “Growth Percent” value [26] was 107.3% and 107.33% and the “Growth Percent” value [27] was 90.3% and 90.31%. For the same molecule, the “Growth Percent” value [28] was 79.7% and 79.72%, the “Growth Percent” value [29] was 109.4% and the “Growth Percent” value [30] was 92.8%. The “Growth Percent” value [31] was 108.3% and 108.34%, the “Growth Percent” value [32] was 103.5% and 103.58% and the “Growth Percent” value [33] was 102.9% and 102.94%. For the same molecule, the “Growth Percent” value [34] was 96.1% and 96.12%, the “Growth Percent” value [35] was 106.8% and 106.84% and the “Growth Percent” value [36] was 104.9%. For the same molecule, the “Growth Percent” value [37] was 98.0% and 98.02%.
